Results taken from patent US4906661A, “Esters of aryloxypropanolamine derivatives” (E. I. Du Pont de Nemours and Company, priority 1989, dated 1990).

What was measured:
[1] = system: β-adrenergic receptors, guinea pig trachea vs right atria; assay: Cardioselectivity, KB trachea/KB atria; assay type: cell-based; conditions: 10^(pA2 atria-pA2 trachea); ratio greater than one indicates cardioselectivity
Protocol: Each tissue was suspended between a fixed glass rod and a Statham Universal Transducer connected to a Beckman recorder. Atria were allowed to beat spontaneously under a loading tension of approximately 0.5 gm. Intrinsic depressant or stimulant activity was determined for each compound by progressively increasing concentrations in the tissue baths at 60-minute intervals. Tissues were not washed between increments. The maximum concentration showing little or no cardiodepressant activity was chosen for blockade experiments. Changes in rate in response to isoproterenol, a standard β-receptor agonist, were measured in the absence and presence of test compounds. Spiral strips of guinea pig trachea were suspended under 5 gm resting tension and incubated with phentolamine, tropolone and cocaine. Active tension was generated by addition of carbachol (3.0×10^-7 M) and decreases in tension in response to isoproterenol were quantitated. Cumulative concentration-response curves were produced with isoproterenol both before and after 60-minute incubation of test compounds with atria and trachea. […] The degree of cardioselectivity was estimated from the ratio, KB trachea/KB atria (10^(pA2 atria-pA2 trachea)). A ratio greater than one indicates cardioselectivity. Test drugs were dissolved in distilled water and added to the bath (30 ml) in a volume of 10 or 100 μl.

[2] = Enzymatic hydrolysis by dog liver homogenate (procedure C); assay type: in vitro ADME; conditions: for remaining at 1 h / remaining at 2 h / half-life: dog, liver homogenate; for remaining at 1 h / remaining at 2 h: 37° C., procedure C; for remaining at 1 h: read-out: % Drug remaining, 1 HR, dog liver homogenate; for remaining at 2 h: read-out: % Drug remaining, 2 HR, dog liver homogenate; for half-life: approximate value, determined by procedure C, read-out: T1/2 dog liver homogenate
Source text: (§1) Chemicals--Acetonitrile was "HPLC" grade. Distilled water was used to dissolve the compounds and 0.01 N HCl was used to dissolve compounds requiring an acidic pH for dissolution. Enzyme Source--Fresh aqueous humor was collected from eyes of dogs using a 23-gauge needle while fresh dog blood was collected into heparinized Vacutainer tubes. Fresh liver was homogenized in 0.9% NaCl using a Potter-Elvehjem Teflon pestle and glass homogenizer to make a 25% (W/V) homogenate. […] Denatured tissue controls were prepared by adding 2.0 ml of acetonitrile into 0.5 ml of aqueous humor, blood, or liver homogenate to destroy esterase activities prior to addition of the β-blockers. These controls were then incubated at 37° C. for 120 min. […] Sample Processing and Data Analyses--All samples were centrifuged at 4000 RPM for 10 min to sediment denatured proteins. The resultant supernatants were transferred to WISP.cndot. vials and analyzed using an HPLC assay developed for beta blockers. The hydrolysis of β-blockers by aqueous humor, blood, and liver homogenate was determined by disappearance of the compounds. The extent of enzymatic hydrolysis by each tissue was determined by comparing the amount of each compound (absolute peak area) recovered at each time point to the amount of each compound (absolute peak area) in denatured tissue control and aqueous control samples.

[3] = Half-life in dog whole blood (procedure D); assay type: in vitro ADME; conditions: 37° C., read-out: T1/2 dog blood
Protocol: In each experiment, 1 ml of a solution containing 50 μg of the test compound was added to 1 ml of whole blood or 1 ml of a 33% (w/v) liver homogenate. The samples were incubated in a Dubnoff shaking metabolic incubator for 2.5, 5.0, 10.0, 20.0, 30.0 and 60.0 minutes at 37° C. At the designated time periods, the test mixtures were removed from the incubator and transferred to a 0° C. ice bath. Acetonitrile (2 ml) was immediately added and the mixtures were mixed to stop enzymatic hydrolysis. Zero time samples were prepared by adding 2 ml of acetonitrile to denature the proteins prior to addition of the test compounds. After centrifugation to sediment denatured proteins, 2 ml of the supernatant was removed and analyzed by high pressure liquid chromatography, using a mobile phase of 60% acetonitrile/40% 0.05 M sodium phosphate buffer (pH 6.6), a U.V. detector and Waters μ Bondapak Phenyl column.
The half life of each test compound was determined graphically by plotting the decrease in concentrations as a function of time.

[4] = Enzymatic hydrolysis by dog aqueous humor (procedure C); assay type: in vitro ADME; conditions: for remaining at 1 h / remaining at 2 h: 37° C., procedure C; for remaining at 1 h: read-out: % Drug remaining, 1 HR, dog aqueous humor; for remaining at 2 h: read-out: % Drug remaining, 2 HR, dog aqueous humor; for half-life: approximate value, determined by procedure C, read-out: T1/2 dog aqueous humor; for metabolised at 2 h: two hours, read-out: hydrolyzed in aqueous humor after two hours
Source text: as §1

[5] = target: β2 receptors, guinea pig trachea (Cavia porcellus, UniProt Q8K4Z4); assay: cell-based; conditions: Table I; guinea pig trachea, vs isoproterenol; -log KB; read-out: PA2 Trachea (converted)
Protocol: Each tissue was suspended between a fixed glass rod and a Statham Universal Transducer connected to a Beckman recorder. Atria were allowed to beat spontaneously under a loading tension of approximately 0.5 gm. Intrinsic depressant or stimulant activity was determined for each compound by progressively increasing concentrations in the tissue baths at 60-minute intervals. Tissues were not washed between increments. […] Changes in rate in response to isoproterenol, a standard β-receptor agonist, were measured in the absence and presence of test compounds. Spiral strips of guinea pig trachea were suspended under 5 gm resting tension and incubated with phentolamine, tropolone and cocaine. Active tension was generated by addition of carbachol (3.0×10^-7 M) and decreases in tension in response to isoproterenol were quantitated. Cumulative concentration-response curves were produced with isoproterenol both before and after 60-minute incubation of test compounds with atria and trachea. […] The blocking potency of test compounds was estimated by computing pA2 values (-log KB) by the method of Furchgott, the Pharmacological Differentiation of Adrenergic Receptors, Ann. […] A ratio greater than one indicates cardioselectivity. Test drugs were dissolved in distilled water and added to the bath (30 ml) in a volume of 10 or 100 μl.

[6] = Enzymatic hydrolysis by dog blood (procedure C); assay type: in vitro ADME; conditions: 37° C.; for remaining at 1 h: read-out: % Drug remaining, 1 HR, dog blood; for remaining at 2 h: read-out: % Drug remaining, 2 HR, dog blood
Protocol: Chemicals--Acetonitrile was "HPLC" grade. Distilled water was used to dissolve the compounds and 0.01 N HCl was used to dissolve compounds requiring an acidic pH for dissolution.
Enzyme Source--Fresh aqueous humor was collected from eyes of dogs using a 23-gauge needle while fresh dog blood was collected into heparinized Vacutainer tubes. Fresh liver was homogenized in 0.9% NaCl using a Potter-Elvehjem Teflon pestle and glass homogenizer to make a 25% (W/V) homogenate.
Incubation Condition--A 0.5 ml aliquot of dog aqueous humor, blood, or liver homogenate was incubated with 12.5 μg (0.5 ml) of β-blocker in a Dubnoff shaking metabolic incubator at 37° C. for 60 and 120 min. Denatured tissue controls were prepared by adding 2.0 ml of acetonitrile into 0.5 ml of aqueous humor, blood, or liver homogenate to destroy esterase activities prior to addition of the β-blockers. These controls were then incubated at 37° C. for 120 min. After 60 and 120 min, the incubations were terminated by addition of 2 ml of acetonitrile and immediately mixed by a Vortex.cndot. to stop esterase activities.
Sample Processing and Data Analyses--All samples were centrifuged at 4000 RPM for 10 min to sediment denatured proteins. The resultant supernatants were transferred to WISP.cndot. vials and analyzed using an HPLC assay developed for beta blockers. The hydrolysis of β-blockers by aqueous humor, blood, and liver homogenate was determined by disappearance of the compounds. The extent of enzymatic hydrolysis by each tissue was determined by comparing the amount of each compound (absolute peak area) recovered at each time point to the amount of each compound (absolute peak area) in denatured tissue control and aqueous control samples.

β2 receptors, guinea pig trachea, sequence (Q8K4Z4 whole entry): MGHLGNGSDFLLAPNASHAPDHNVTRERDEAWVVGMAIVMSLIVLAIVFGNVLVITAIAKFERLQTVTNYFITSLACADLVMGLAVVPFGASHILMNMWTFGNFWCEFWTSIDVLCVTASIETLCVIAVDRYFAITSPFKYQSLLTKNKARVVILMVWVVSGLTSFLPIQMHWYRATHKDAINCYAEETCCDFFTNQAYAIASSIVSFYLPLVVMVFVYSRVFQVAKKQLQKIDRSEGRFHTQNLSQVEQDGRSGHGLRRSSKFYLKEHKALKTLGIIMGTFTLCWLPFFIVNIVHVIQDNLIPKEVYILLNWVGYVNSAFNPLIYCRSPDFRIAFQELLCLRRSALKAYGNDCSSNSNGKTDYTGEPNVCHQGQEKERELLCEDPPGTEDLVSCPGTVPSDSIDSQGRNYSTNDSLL

SMILES	Cardioselectivity KB (Trachea)/KB (Atria) [1]	remaining at 1 h [2] [%]	remaining at 2 h [2] [%]	half-life [2] [h]	half-life [3] [h]	remaining at 1 h [4] [%]	remaining at 2 h [4] [%]	half-life [4] [h]	Kb [5] [nM]	remaining at 1 h [6] [%]	remaining at 2 h [6] [%]	hydrolysis in liver homogenate ([2]; within 60 minutes)	metabolised at 2 h [4] [%]	metabolised at 1 h ([4]; one hour, read-out: hydrolyzed in aqueous humor after one hour) [%]
COC(=O)c1ccccc1OCC(O)CNCCNC(=O)C(C)C (stereo not shown) [II, Methyl 2-[2-Hydroxy-3-[N-[2-(2-methylpropionamido)ethyl]amino]propoxy]benzoate]	4	0	0	< 1	1.03 ± 0.05	94	91	> 2	31.6	41	16	–	–	–
COC(=O)c1ccccc1OCC(O)CNCCNC(C)=O (stereo not shown) [Example I, Methyl 2-[2-Hydroxy-3-[N-2(-acetamidoethyl)amino]propoxy]benzoate]	2	0	0	< 1	1.03 ± 0.133	93	93	> 2	100	54	47	completely hydrolyzed	7	–
COC(=O)c1ccccc1OCC(O)CNCCNC(=O)Cc1ccccc1 (stereo not shown) [III, Methyl 2-[2-Hydroxy-3-[N-[2-(phenylacetamido)ethyl]amino]propoxy]benzoate]	4	0	0	< 1	1.22 ± 0.267	100	98	> 2	20	53	23	–	2	0
